Results: ChEMBL document CHEMBL1132232, “7alpha-Iodo and 7alpha-fluoro steroids as androgen receptor-mediated imaging agents” (J Med Chem, 1999)

Target: T1, Androgen receptor (Homo sapiens) (UniProt P10275)
T1 sequence (whole entry): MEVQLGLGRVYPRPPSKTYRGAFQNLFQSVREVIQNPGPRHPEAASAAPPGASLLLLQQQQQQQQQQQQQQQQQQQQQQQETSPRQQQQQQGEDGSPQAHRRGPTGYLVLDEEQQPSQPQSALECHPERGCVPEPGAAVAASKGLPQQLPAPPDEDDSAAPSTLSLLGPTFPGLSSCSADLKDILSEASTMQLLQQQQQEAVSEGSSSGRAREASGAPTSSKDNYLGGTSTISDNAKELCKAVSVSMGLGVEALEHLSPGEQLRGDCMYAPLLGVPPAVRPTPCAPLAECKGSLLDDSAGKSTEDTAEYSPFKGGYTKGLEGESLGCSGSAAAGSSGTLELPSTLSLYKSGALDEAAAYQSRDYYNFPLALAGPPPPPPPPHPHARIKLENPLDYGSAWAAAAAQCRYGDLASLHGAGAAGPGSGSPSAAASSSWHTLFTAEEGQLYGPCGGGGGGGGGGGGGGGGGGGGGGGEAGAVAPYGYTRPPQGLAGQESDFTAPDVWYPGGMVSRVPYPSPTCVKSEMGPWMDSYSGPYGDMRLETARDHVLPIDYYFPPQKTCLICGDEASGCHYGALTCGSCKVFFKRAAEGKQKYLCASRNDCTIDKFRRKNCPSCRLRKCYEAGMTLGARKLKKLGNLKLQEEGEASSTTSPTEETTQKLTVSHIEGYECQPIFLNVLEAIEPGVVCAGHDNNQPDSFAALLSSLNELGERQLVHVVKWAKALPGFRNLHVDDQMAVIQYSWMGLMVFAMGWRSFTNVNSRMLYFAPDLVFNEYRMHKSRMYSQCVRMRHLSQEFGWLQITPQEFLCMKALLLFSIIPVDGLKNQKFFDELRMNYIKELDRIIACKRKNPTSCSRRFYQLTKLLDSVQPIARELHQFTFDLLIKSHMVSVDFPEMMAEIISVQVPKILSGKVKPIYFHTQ
Details: CV-1
Description: Relative stimulatory activity compared to 5-alpha-DHT in CV-1 cells expressing androgen receptor

CC12CCC(=O)CC1C[C@@H](F)[C@@H]1[C@@H]2CCC2(C)[C@H]1CC[C@]2(C)O (some centres undefined)
RSA: 418

C[C@]12CC[C@@H]3C4CCC(=O)CC4C[C@@H](F)[C@H]3[C@@H]1CC[C@@H]2O (some centres undefined)
RSA: 44

CC12CC[C@@H]3C4CCC(=O)CC4C[C@@H](F)[C@H]3[C@@H]1CC[C@]2(C)O (some centres undefined)
RSA: 16

CC12CC[C@@H]3C4CCC(=O)CC4C[C@@H](I)[C@H]3[C@@H]1CC[C@]2(C)O (some centres undefined)
RSA: 8
